Assay results published in patent US4975449A, “Topical treatment of glaucoma with 2-benzothiazolesulfonamide derivative” (University of Iowa Research Foundation, priority 1983, dated 1990).
Several values for one entry are separate records, joined by “and”; a condition that tells them apart may be missing. Equal entries are not always repeated. Entries after “also recorded” stand apart in the source; their conditions may differ.

Assays:
[1] = system: rabbit eyes (intraocular pressure); assay: Rabbit Eye Tests (In-Vivo IOP Determinations), Water Loading Model; parameters: species or system New Zealand albino rabbits; details: for drop in IOP (right eye) compared to no drug control: 6-ethoxy-N-methyl: at 90 and 120 minutes, 6-chloro: 15 through 90 minutes, ethoxzolamide: any time point
Procedure: New Zealand albino rabbits either sex and weighing 1.9-2.4kg were used. Control IOP measurements were made by applanation tonometry (Alcon Applanation Pneumatonograph®) prior to water loading and drug administration. The rabbits were first anesthelized and then water loaded using 100 ml/kg (sterile water for injection). The water dose was given intraperitoneally over 15-20 minutes Four test formulations were administered topically to the right eye of each rabbit immediately following water loading. The vehicle was administered to the left eye of each rabbit. The test formulations contained 1% suspensions of ethoxzolamide, and the other indicated compounds, and a vehicle (coded E). The vehicle contained a pH 7.2 phosphate buffer and 0.05% polysorbate 80 (Tween-80®). IOP measurement were made in right and left eyes at 15, 30, […], 60, 90, 120 and 180 minutes after topical administration.

[2] = system: rabbit eyes (intraocular pressure); assay: Salted Rabbit Test (IOP in rabbits fed a sodium enriched diet); assay type: in vivo, adult white rabbits; details: for IOP change, (IOPDET - IOPCET) - (IOPDEO - IOPCEO) / Difference in IOP between both eyes just prior to dosing (IOPDEO - IOPCEO): individual rabbit; for IOP change, (IOPDET - IOPCET) - (IOPDEO - IOPCEO): 1% w/v suspension topical; for Difference in IOP between both eyes just prior to dosing (IOPDEO - IOPCEO): t = 0, pre-dose; for Effectiveness in lowering IOP, comparison (in words): the two rabbit models of Examples 10 and 11
Procedure: The treated eye was selected randomly, whereas, the fellow eye received placebo; the observer was masked.
In particular, a 1% w/v suspension of 6-chloro-2-benzothiazolesulfonamide analog was prepared in a standard vehicle consisting of aqueous pH 7.8 phosphate buffer, 0.05% w/v tween 80, and sufficient NaC1 to make the preparation isotonic. One drop, followed by two drops each at one minute intervals, was applied to one eye of normal adult white rabbits. Fifteen rabbits were used in the experiment. The treated eye was selected randomly, whereas, the fellow eye received placebo. The observer was masked. The intraocular pressure (IOP) was measured with an Alcon […] pneumotonometer. A drop of local anesthetic was applied just prior to making the measurement. The IOP was measured in both rabbit eyes at 0, 30, 60, 90 and 120 minutes following instillation of the new antiglaucoma agent.

[3] = system: rabbit eyes (intraocular pressure); assay: as above; assay type: in vivo, adult white rabbits; details: for Lowering of IOP (in words): 6-chloro: 30, 60 and 120 minutes, ethoxzolamide: any time point after dosing; for Average IOP change: 1% w/v suspension topical; for Average difference in IOP between both eyes just prior to dosing: t = 0, pre-dose; for Statistical significance of IOP change: N.S. = non-significant
[4] = 15 min after topical administration, 1% suspension, 50 ul q 2 min × 6, right eye
[5] = 30 min after topical administration, 1% suspension, 50 ul q 2 min × 6, right eye
[6] = 60 min after topical administration, 1% suspension, 50 ul q 2 min × 6, right eye
[7] = 90 min after topical administration, 1% suspension, 50 ul q 2 min × 6, right eye
[8] = 120 min after topical administration, 1% suspension, 50 ul q 2 min × 6, right eye
[9] = 180 min after topical administration, 1% suspension, 50 ul q 2 min × 6, right eye
[10] = time 0 min, baseline, 1% suspension topical to right eye

Row | Structure (SMILES) | drop in IOP (right eye) compared to no drug control [1] | IOP, right eye (R) [1, 4] [mmHg] | IOP, right eye (R) [1, 5] [mmHg] | IOP, right eye (R) [1, 6] [mmHg] | IOP, right eye (R) [1, 7] [mmHg] | IOP, right eye (R) [1, 8] [mmHg] | IOP, right eye (R) [1, 9] [mmHg] | IOP, right eye (R) [1, 10] [mmHg] | Paired t value of IOP change ([2]; 60 min) | Paired t value of IOP change ([2]; 120 min) | IOP change, (IOPDET - IOPCET) - (IOPDEO - IOPCEO) ([2]; 30 min) | IOP change, (IOPDET - IOPCET) - (IOPDEO - IOPCEO) ([2]; 60 min) | IOP change, (IOPDET - IOPCET) - (IOPDEO - IOPCEO) ([2]; 90 min) | IOP change, (IOPDET - IOPCET) - (IOPDEO - IOPCEO) ([2]; 120 min) | Difference in IOP between both eyes just prior to dosing (IOPDEO - IOPCEO) [2] | Effectiveness in lowering IOP, comparison (in words) [2] | Lowering of IOP (in words) [3] | Paired t value of IOP change ([3]; 30 min) | Paired t value of IOP change ([3]; 90 min) | Average IOP change ([3]; 30 min) | other results
1 | NS(=O)(=O)c1nc2ccc(Cl)cc2s1 [6-Chloro benzothiazole-2-sulfonamide, 6-Chloro-2-benzothiazolesulfonamide] | significant drop | 19.72 | 20.00 | 21.39 | 19.11 | 18.78 | 17.8 | 14.33 | -2.106 | -2.11 | -3 mm Hg and -5 mm Hg and +1 mm Hg and 0 mm Hg and -4 mm Hg and -1 mm Hg and -2 mm Hg and +2 mm Hg | -2 mm Hg and -4 mm Hg and +1 mm Hg and -3 mm Hg and +2 mm Hg and -1 mm Hg and +3 mm Hg | -1 mm Hg and -2 mm Hg and +1 mm Hg and -3 mm Hg and +2 mm Hg and 0 mm Hg and +3 mm Hg | -2 mm Hg and -4 mm Hg and +3 mm Hg and -1 mm Hg and -5 mm Hg and 0 mm Hg and -6 mm Hg and +1 mm Hg | +1 mm Hg and +2 mm Hg and 0 mm Hg and +3 mm Hg and -2 mm Hg and -1 mm Hg and -3 mm Hg | pharmacologically active (lowered IOP) | small but significant reduction of intraocular pressure; also recorded: statistically significant | -1.834 | -1.63 | -0.93 mm Hg | Effectiveness (in words) ([1]; water loading model, topical): proved effective; Probability (1.t.) of IOP change ([3]; 30 min): 0.05; Probability (1.t.) of IOP change ([3]; 60 min): 0.025; Probability (1.t.) of IOP change ([3]; 90 min): 0.1; Probability (1.t.) of IOP change ([3]; 120 min): 0.025; Average IOP change ([3]; 60 min): -1.27 mm Hg; Average IOP change ([3]; 90 min): -0.87 mm Hg; Average IOP change ([3]; 120 min): -1.47 mm Hg; Average difference in IOP between both eyes just prior to dosing [3]: +0.27 mm Hg
2 | CCOc1ccc2nc(S(=O)(=O)NC)sc2c1 [6-Ethoxy-N-methyl-2-benzothiazolesulfonamide] | significant drop | 19.10 | 19.90 | 20.33 | 18.57 | 17.24 | 17.00 | 14.10 | – | – | – | – | – | – | – | – | – | – | – | – | –
3 | CCOc1ccc2nc(S(N)(=O)=O)sc2c1 [Ethoxzolamide, reference compound] | no effect | 21.07 | 21.60 | 21.33 | 20.33 | 18.80 | 16.4 | 14.94 | 0.40 | 0.50 | +1 mm Hg and +2 mm Hg and -2 mm Hg and -3 mm Hg and 0 mm Hg | +3 mm Hg and -2 mm Hg and +2 mm Hg and +1 mm Hg and 0 mm Hg | +1 mm Hg and 0 mm Hg and +2 mm Hg and -2 mm Hg and -3 mm Hg | 0 mm Hg and -1 mm Hg and +2 mm Hg | +4 mm Hg and +1 mm Hg and -1 mm Hg and 0 mm Hg | no effectiveness | No lowering of IOP could be detected | 1.27 | 0.73 | -.17 mm Hg | Statistical significance of IOP change ([3]; 30 min): N.S.; Statistical significance of IOP change ([3]; 60 min): N.S.; Statistical significance of IOP change ([3]; 90 min): N.S.; Statistical significance of IOP change ([3]; 120 min): N.S.; Average IOP change ([3]; 60 min): +.33 mm Hg; Average IOP change ([3]; 90 min): -0 mm Hg; Average IOP change ([3]; 120 min): +.17 mm Hg; Average difference in IOP between both eyes just prior to dosing [3]: +.67 mm Hg
